The target of experiment [1] is T1, NLRP3 (Homo sapiens, UniProt Q96P20). Nature of the experiment: THP-1 cells pyroptosis assay (LPS + nigericin, resazurin readout). In kind it is cell-based. The arrangement: Seed THP-1 cells (25,000 cells/well) containing 1.0 μg/ml LPS; host or cells: THP-1 cells. The conditions noted are these: NLRP3 inhibitory activity, 1.0 μg/ml LPS, 3 hrs compound, nigericin 5 μM 1 hr. The procedure: THP-1 cells (ATCC #TIB-202) were grown in RPMI containing L-glutamine (Gibco #11835) supplemented with 1 mM sodium pyruvate (Sigma #S8636) and penicillin (100 units/ml)/streptomycin (0.1 mg/ml) (Sigma #P4333) in 10% Fetal Bovine Serum (FBS) (Sigma #F0804). The cells were routinely passaged and grown to confluency (˜10^6 cells/ml). On the day of the experiment, THP-1 cells were harvested and resuspended into RPMI medium (without FBS). The cells were then counted and viability (>90%) checked by Trypan blue (Sigma #T8154). Appropriate dilutions were made to give a concentration of 625,000 cells/ml. To this diluted cell solution was added LPS (Sigma #L4524) to give a […] Final Assay Concentration (FAC). 40 μl of the final preparation was aliquoted into each well of a 96-well plate. The plate thus prepared was used for compound screening.
The following method step-by-step assay was followed for compound screening. • 1. Seed THP-1 cells (25,000 cells/well) containing 1.0 μg/ml LPS in 40 μl of RPMI medium (without FBS) in 96-well, black walled, clear bottom cell culture plates coated with poly-D-lysine (VWR #734-0317) • 2. Add 5 μl compound (8 points half-log dilution, with 10 μM top dose) or vehicle (DMSO 0.1% FAC) to the appropriate wells • 3. Incubate for 3 hrs at 37° C., 5% CO2 • 4. Add 5 μl nigericin (Sigma #N7143) (FAC 5 μM) to all wells • 5. Incubate for 1 hr at 37° C., 5% CO2 • 6. At the end of the incubation period, spin plates at 300×g for 3 mins and remove supernatant • 7. Then add 50 μl of resazurin (Sigma #R7017) (FAC 100 μM resazurin in RPMI medium without FBS) and incubate plates for a further 1-2 hrs at 37° C. and 5% CO2 • 8. Plates were read in an Envision reader at Ex 560 nm and Em 590 nm • 9. IC50 data is fitted to a non-linear regression equation (log inhibitor vs response-variable slope 4-parameters)
A general note: The colour change of resazurin is a common sign of viable cells or microbes.

For experiment [2], the target named is T1, NLRP3. Nature of the experiment: Human whole blood IL-1β release assay (LPS + nigericin, AlphaLisa). The settings on record: NLRP3 inhibitory activity, 1 μg/ml LPS, 3 hrs compound, nigericin 10 μM 1 hr, read-out: HWB IC50. In kind it is cell-based. Details: Plate out 80 μl of whole blood containing 1 μg/ml of LPS; from tissue; host or cells: human whole blood from healthy volunteer donors. Here is the method: For systemic delivery, the ability to inhibit NLRP3 when the compounds are present within the bloodstream is of great importance. For this reason, the NLRP3 inhibitory activity of a number of compounds in human whole blood was investigated in accordance with the following protocol.
Human whole blood in Li-heparin tubes was obtained from healthy donors from a volunteer donor panel. • 1. Plate out 80 μl of whole blood containing 1 μg/ml of LPS in 96-well, clear bottom cell culture plate (Corning #3585) • 2. Add 10 μl compound (8 points half-log dilution with 10 μM top dose) or vehicle (DMSO 0.1% FAC) to the appropriate wells • 3. Incubate for 3 hrs at 37° C., 5% CO2 • 4. Add 10 μl nigericin (Sigma #N7143) (10 μM FAC) to all wells • 5. Incubate for 1 hr at 37° C., 5% CO2 • 6. […] IL-1β was measured according to the manufacturer protocol (Perkin Elmer-AlphaLisa IL-1 Kit AL220F-5000) • 8. IC50 data is fitted to a non-linear regression equation (log inhibitor vs response-variable slope 4-parameters)
On the technique in general: In Alpha technology, singlet oxygen from a donor bead excites a nearby acceptor bead.

Molecules are shown by their SMILES. pIC50: −log10 of the molar value.

T1 sequence (Q96P20 whole entry): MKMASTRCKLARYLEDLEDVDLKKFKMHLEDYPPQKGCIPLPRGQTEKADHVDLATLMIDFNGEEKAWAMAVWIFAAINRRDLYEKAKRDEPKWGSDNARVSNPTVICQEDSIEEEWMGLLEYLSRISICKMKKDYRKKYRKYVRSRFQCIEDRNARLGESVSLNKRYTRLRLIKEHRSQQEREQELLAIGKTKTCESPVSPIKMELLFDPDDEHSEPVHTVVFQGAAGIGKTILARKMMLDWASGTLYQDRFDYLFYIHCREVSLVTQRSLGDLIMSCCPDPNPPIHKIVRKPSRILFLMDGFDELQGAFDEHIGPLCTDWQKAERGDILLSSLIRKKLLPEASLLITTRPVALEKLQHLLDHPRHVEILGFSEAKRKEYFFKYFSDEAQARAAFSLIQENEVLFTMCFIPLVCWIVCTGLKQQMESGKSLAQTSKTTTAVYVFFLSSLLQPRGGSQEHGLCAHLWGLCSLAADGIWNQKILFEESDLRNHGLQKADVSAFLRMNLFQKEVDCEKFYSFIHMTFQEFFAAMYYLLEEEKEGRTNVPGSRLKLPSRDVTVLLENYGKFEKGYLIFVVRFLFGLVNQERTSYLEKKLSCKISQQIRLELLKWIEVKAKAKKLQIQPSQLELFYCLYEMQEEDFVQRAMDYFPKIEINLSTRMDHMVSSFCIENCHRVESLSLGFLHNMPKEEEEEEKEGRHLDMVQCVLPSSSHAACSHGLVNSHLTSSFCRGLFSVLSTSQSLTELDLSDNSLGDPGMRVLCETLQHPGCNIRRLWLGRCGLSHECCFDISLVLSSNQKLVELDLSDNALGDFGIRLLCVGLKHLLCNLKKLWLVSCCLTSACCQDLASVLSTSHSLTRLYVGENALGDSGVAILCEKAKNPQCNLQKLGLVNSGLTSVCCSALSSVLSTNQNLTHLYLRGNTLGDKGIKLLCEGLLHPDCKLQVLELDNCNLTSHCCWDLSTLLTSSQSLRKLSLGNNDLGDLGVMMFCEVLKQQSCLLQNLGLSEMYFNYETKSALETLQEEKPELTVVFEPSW

Take `CC(C)c1cccc2c1CC(=O)NS(=O)(=O)c1ccn(n1)C(C)(C)COc1cc-2ccn1` [Example 1, 16,16-dimethyl-6-(propan-2-yl)-18-oxa-11λ^6-thia-10,15,20,24-tetraaza-tetracyclo[17-3-1-1^12,15.0^2,7]tetracosa-1(22),2(7),3,5,12(24),13,19(23),20-octaene-9,11,11-trione]: the pIC50 on NLRP3 [1] and at NLRP3 [2] was 5.30 to 6.00 in each case.
As to `Cc1ccc(C(C)C)c2c1-c1ccnc(c1)OCC(C)(C)n1ccc(n1)S(=O)(=O)NC(=O)C2` [Example 2], the pIC50 (as a rule, −log10 of the IC50, conventionally taken in molar units) at NLRP3 [1] was 5.30 to 6.00; on NLRP3 [2], 6.00 to 6.30.
For `CC(C)c1cccc2c1CC(=O)NS(=O)(=O)c1cc(CN(C)C)n(n1)CCCCCOc1cc-2ccn1` [Example 3], the pIC50 on NLRP3 [1] and at NLRP3 [2] was 5.00 to 5.30 each time.
For `CC(C)c1cccc2c1CC(=O)NS(=O)(=O)c1ccn(n1)CCOc1cc-2ccn1` [Example 4], the pIC50 on NLRP3 [1] was 5.30 to 6.00; at NLRP3 [2], 5.00 to 5.30.
For `CC(C)c1cccc2c1CC(=O)NS(=O)(=O)c1cc(n(C(C)C)n1)CCOc1cc-2ccn1` [Example 10] the same measures were 5.30 to 6.00 and 5.30 to 6.00.
For the compound `CC(C)c1cccc2c1CC(=O)NS(=O)(=O)c1cc(cc(C(C)(C)O)c1)CCOc1cc-2ccn1` [Example 11], the results for the pIC50 at NLRP3 [1] and on NLRP3 [2] were 6.30 to 7.00 and 5.30 to 6.00, respectively.
The like results for `Cc1ccc(C(C)C)c2c1-c1ccnc(c1)OCC(C)(C)n1cc(F)c(n1)S(=O)(=O)NC(=O)C2` [Example 12] were, in that order, 6.00 to 6.30 and 6.00 to 6.30.
As for `Cc1ccc(C(C)C)c2c1-c1ccnc(c1)OCCn1cc(F)c(n1)S(=O)(=O)NC(=O)C2` [Example 13], the pIC50 at NLRP3 [1] and at NLRP3 [2] was 5.30 to 6.00 each time.
Regarding `CC(C)c1cc(F)cc2c1CC(=O)NS(=O)(=O)c1nn(cc1F)C(C)(C)COc1cc-2ccn1` [Example 15], the figures for the pIC50 at NLRP3 [1] and at NLRP3 [2] were 6.30 to 7.00 and 5.30 to 6.00, respectively.
Consider `CC(C)(O)c1cc2cc(c1)S(=O)(=O)NC(=O)Cc1c(ccc3c1CCC3)-c1ccnc(c1)OCC2` [Example 17, 17-(2-hydroxypropan-2-yl)-22-oxa-14λ^6-thia-13,24-diazapentacyclo-[21.3.1.1^15,19.0^2,10.0^5,9]octacosa-1(26),2,4,9,15,17,19(28),23(27),24-nonaene-12,14,14-trione], for which the pIC50 was 6.00 to 6.30 on NLRP3 [1] and 5.30 to 6.00 at NLRP3 [2].
`COc1cn2nc1S(=O)(=O)NC(=O)Cc1c(cc(F)cc1C(C)C)-c1ccnc(c1)OCC2(C)C` [Example 19]: the pIC50 at NLRP3 [1] is 6.30 to 7.00; on NLRP3 [2], 6.00 to 6.30.
For `CC(C)c1cc(F)cc2c1CC(=O)NS(=O)(=O)c1nn(cc1F)C1(CC1)COc1cc-2ccn1` [Example 20] the same measures were 6.00 to 6.30 and 5.30 to 6.00.
For `CC(C)c1cccc2c1CC(=O)NS(=O)(=O)c1cnn(c1)CCOc1cc-2ccn1` [Example 21], the values for the pIC50 at NLRP3 [1] and on NLRP3 [2] were 5.30 to 6.00 and 5.00 to 5.30, respectively.
In the case of `CC(C)c1cc(F)cc2c1CC(=O)NS(=O)(=O)c1cnn(c1)CCOc1cc-2ccn1` [Example 22], the results for the pIC50 on NLRP3 [1] and on NLRP3 [2] were 5.30 to 6.00 and 5.00 to 5.30, respectively.
For `Cc1nn2cc1S(=O)(=O)NC(=O)Cc1c(cccc1C(C)C)-c1ccnc(c1)OCC2(C)C` [Example 24], the pIC50 at NLRP3 [1] is 6.00 to 6.30; on NLRP3 [2], 5.30 to 6.00.
The like results for `CC1(C)COc2cc(ccn2)-c2cccc(C3CC3)c2CC(=O)NS(=O)(=O)c2nn1cc2F` [Example 27] were, in that order, 5.30 to 6.00 and 6.00 to 6.30.
The like results for `CC(C)c1cccc2c1CC(=O)NS(=O)(=O)c1nn(cc1F)C(C)(C)CCOc1cc-2ccn1` [Example 31] were, in that order, 5.30 to 6.00 and 5.30 to 6.00.
In the case of `CC(C)c1cccc2c1CC(=O)NS(=O)(=O)c1cn(cn1)C(C)(C)COc1cc-2ccn1` [Example 33], the pIC50 at NLRP3 [1] is 6.00 to 6.30; at NLRP3 [2] it was 5.30 to 6.00.
The like results for `CC(C)c1cccc2c1CC(=O)NS(=O)(=O)c1cnn(n1)C(C)(C)COc1cc-2ccn1` [Example 36] were, in that order, 5.30 to 6.00 and 5.30 to 6.00.
For `CC(C)c1cccc2c1CC(=O)NS(=O)(=O)c1nn(c3ncccc13)C(C)(C)COc1cc-2ccn1` [Example 37] the same measures were 6.00 to 6.30 and 5.30 to 6.00.
Consider `CC(C)c1cccc2c1CC(=O)NS(=O)(=O)c1nn(cc1F)-c1ncccc1COc1cc-2ccn1` [Example 38], for which the pIC50 at NLRP3 [1] and on NLRP3 [2] was 5.30 to 6.00 throughout.
With `CC(C)c1cc(F)cc2c1CC(=O)NS(=O)(=O)c1nn(c(C(=O)N(C)C)c1F)C(C)(C)COc1cc-2ccn1` [Example 39], the pIC50 on NLRP3 [1] and on NLRP3 [2] was 5.30 to 6.00 throughout.
Consider `CCN1CCc2c3nn(c2C1)C(C)(C)COc1cc(ccn1)-c1cc(F)cc(C(C)C)c1CC(=O)NS3(=O)=O` [Example 40], for which the pIC50 on NLRP3 [1] and on NLRP3 [2] was 5.30 to 6.00 throughout.
As for `CC(C)c1cc(F)cc2c1CC(=O)NS(=O)(=O)c1cc(C(=O)N(C)C)n(n1)C(C)(C)COc1cc-2ccn1` [Example 41], the negative-log IC50 (pIC50) on NLRP3 [1] and on NLRP3 [2] was 5.30 to 6.00 throughout.
Regarding `CC(C)c1cccc2c1CC(=O)NS(=O)(=O)c1ccn(n1)CCOc1cc-2cnn1` [Example 44, 6-(propan-2-yl)-18-oxa-11λ^6-thia-10,15,20,21,24-pentaazatetracyclo-[17.3.1.1^12,15.0^2,7]tetracosa-1(22),2(7),3,5,12(24),13,19(23),20-octaene-9,11,11-trione], the pIC50 on NLRP3 [1] was 5.30 to 6.00; at NLRP3 [2], 5.00 to 5.30.

Source of the values: patent US20220389031A1, “MACROCYCLIC SULFONYLAMIDE DERIVATIVES USEFUL AS NLRP3 INHIBITORS” (Inflazome Limited, priority 2019, published 2022).
